Laboratory results: patent US20220370453A1 (Storm Therapeutics Ltd, priority 2019, published 2022)

Columns and labels:
[1] = target: T1, BCDIN3D (Homo sapiens, UniProt Q7Z5W3); test: BCDIN3D IC50 RFMS (RapidFire) assay with mini-helix; assay type: biochemical; settings: 25 nM enzyme
T1 sequence (Q7Z5W3 1-292): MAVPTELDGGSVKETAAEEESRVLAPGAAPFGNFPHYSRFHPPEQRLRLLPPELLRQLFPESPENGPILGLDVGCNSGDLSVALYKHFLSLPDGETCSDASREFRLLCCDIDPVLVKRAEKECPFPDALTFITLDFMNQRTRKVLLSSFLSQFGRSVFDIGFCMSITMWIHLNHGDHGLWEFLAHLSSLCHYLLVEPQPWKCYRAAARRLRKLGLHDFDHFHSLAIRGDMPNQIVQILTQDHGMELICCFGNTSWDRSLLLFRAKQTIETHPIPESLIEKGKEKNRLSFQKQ
Experimental: The following General Methods details the assay conditions for the Biological assays.
BCDIN3D IC50 RFMS Assay with Mini-Helix
The enzymatic assay was performed in a 384-well polypropylene plate in assay buffer with 25 mM Tris pH 8.0, 10 mM DTT, 1 mM EDTA, 0.03% BSA in a final assay volume of 20 μL. The enzyme with a final concentration of 25 nM was pre-incubated with the respective compound at 1% DMSO final assay concentration over 10 min at room temperature. The reaction was initiated by addition of 0.2 μM final assay concentration of mini-helix and 6 μM final concentration of SAM as substrates. After a 1 hr incubation at 37° C., the reaction was terminated with 40 μL of stop solution of 7.5% trichloroactetic acid in water containing 112.5 nM D4-SAH and 30 nM ^13C10-SAH used as internal standards. The SAH product concentrations as well as both internal standards were analyzed by a RapidFire High Throughput Mass Spectrometry System (Agilent Technologies, Santa Clara, Calif.) using an AP14000 triple quadrupole mass spectrometer (AB Sciex Framingham, Mass.).

[2] = target: T1, BCDIN3D; test: BCDIN3D InCellPulse thermal stability assay in transfected A549 cells; assay type: cell-based; settings: heat shock 58° C. 15 min
Experimental: BCDIN3D InCellPulse™ Assay
The thermal stability assay was performed with lipofectamine 3000 transiently transfected A549 using the plasmid pICP-ePL-BCDIN3 Da. This plasmid encodes for BCDIN3D N-terminally fused to a Prolabel (ePL), complementing a split β-Galactosidase Enzyme System InCELL Pulse Technology (InCELL Hunter Detection Kit, DiscoverX/Eurofins, cat: 96-0079L). 20 μl A549 cells (1500 cell/well) were added with a multidrop device to compounds to a final DMSO concentration of 0.6% in 384-well polypropylene plate format in IMDM medium and pre-incubated with the compounds for 1 h at 37° C. and 5% CO2. Subsequently, a heat shock was applied to the entire sealed plate in a 58° C. water bath for 15 min. The plates were cooled to RT, spun down and 25 μl/well of EA Detection Solution at 3.3× (InCELL Hunter Detection Kit) was added per well. 21 μl of the mixture was added to a black 384-well measurement plate (Corning, PS, black, Flat Bottom, #3575), mix for 30 minutes on a plate shaker at RT. Finally, the luminescence was measured with a Perkin Elmer EnVision with 0.2 s measurement time in luminescence mode.

[3] = mini-helix 0.2 μM and SAM 6 μM as substrates, 1 hr at 37° C.
[4] = A549 cells transiently transfected with ePL-BCDIN3D, 1 h pre-incubation
[5] = mini-helix substrate 0.2 μM, SAM 6 μM
[6] = transiently transfected A549 cells

| Compound | IC50 [1, 3] [nM] | IC50 [2, 4] [nM] | IC50 [1, 5] [nM] | IC50 [2, 6] [nM] |
| --- | --- | --- | --- | --- |
| Cn1ncc2c(Nc3ccc(C(F)(F)F)cc3)nc(NCC3(N)CCCCC3)nc21 [Compound 1.32, N6-[(1-aminocyclohexyl)methyl]-1-methyl-N4-[4-(trifluoromethyl)phenyl]pyrazolo[3,4-d]pyrimidine-4,6-diamine] | 77.9 | 234 | – | – |
| Cc1nn(C)c2nc(NCC(C)(C)N)nc(Nc3cccc(C(F)(F)F)c3)c12 [Compound 1.33, N6-(2-amino-2-methylpropyl)-1,3-dimethyl-N4-[3-(trifluoromethyl)phenyl]-1H-pyrazolo[3,4-d]pyrimidine-4,6-diamine] | 4330 | 6460 | – | – |
| Cc1ccc(CNc2nc(NC3CCCCC3N)nc3c2cnn3C)cc1Cl (centres unmarked) [Compound 1.34, 6-N-(2-aminocyclohexyl)-4-N-[(3-chloro-4-methylphenyl)methyl]-1-methylpyrazolo[3,4-d]pyrimidine-4,6-diamine] | 1140 | 1410 | – | – |
| Cn1ncc2c(Nc3ccc(C(F)(F)F)nc3)nc(NCC3(N)CCOCC3)nc21 [Compound 1.35, 6-N-[(4-aminooxan-4-yl)methyl]-1-methyl-4-N-[6-(trifluoromethyl)pyridin-3-yl]pyrazolo[3,4-d]pyrimidine-4,6-diamine] | 3950 | 7880 | – | – |
| Cn1ncc2c(Nc3ccc(C(F)(F)F)cc3)nc(N[C@H]3COC[C@H]3N)nc21 [Compound 1.36, N6-[(3R,4S)-4-aminotetrahydrofuran-3-yl]-1-methyl-N4-[4-(trifluoromethyl)phenyl]pyrazolo[3,4-d]pyrimidine-4,6-diamine] | 5660 | 10600 | – | – |
| Cc1nn(C)c2nc(NCC(C)(C)N)cc(NCc3cccc(C(F)(F)F)c3)c12 [Compound 1.38, 6-N-(2-Amino-2-methylpropyl)-1,3-dimethyl-4-N-[[3-(trifluoromethyl)phenyl]methyl]pyrazolo[3,4-b]pyridine-4,6-diamine] | 8630 | 4000 | – | – |
| Cc1ccc(CNc2nc(NCC3(N)CC3)nc3c2cnn3C)cc1Cl [Compound 2.01, 6-N-[(1-Aminocyclopropyl)methyl]-4-N-[(3-chloro-4-methylphenyl)methyl]-1-methylpyrazolo[3,4-d]pyrimidine-4,6-diamine] | – | – | 275 | 707 |
| Cn1ncc2c(NCc3ccc(F)c(Cl)c3)nc(NCC3(N)CC3)nc21 [Compound 2.02, 6-N-[(1-Aminocyclopropyl)methyl]-4-N-[(3-chloro-4-fluorophenyl)methyl]-1-methylpyrazolo[3,4-d]pyrimidine-4,6-diamine] | – | – | 505 | 1910 |
| Cn1ncc2c(Nc3ccc(C(F)(F)F)c(F)c3)nc(NCC3(N)CC3)nc21 [Compound 2.03, N6-[(1-aminocyclopropyl)methyl]-N4-[3-fluoro-4-(trifluoromethyl)phenyl]-1-methyl-pyrazolo[3,4-d]pyrimidine-4,6-diamine] | – | – | 20.7 | 282 |
| COc1ccc(Nc2nc(NCC3(N)CC3)nc3c2cnn3C)cc1Cl [Compound 2.04, 6-N-[(1-aminocyclopropyl)methyl]-4-N-(3-chloro-4-methoxyphenyl)-1-methylpyrazolo[3,4-d]pyrimidine-4,6-diamine] | – | – | 60.8 | 1800 |
| Cn1ncc2c(Nc3ccc(F)cc3F)nc(NCC3(N)CC3)nc21 [Compound 2.05, 6-N-[(1-aminocyclopropyl)methyl]-4-N-(2,4-difluorophenyl)-1-methylpyrazolo[3,4-d]pyrimidine-4,6-diamine] | – | – | 1670 | 5050 |
| Cn1ncc2c(Nc3cccc(C(F)(F)F)c3)nc(NCC3(N)CC3)nc21 [Compound 2.06, 6-N-[(1-aminocyclopropyl)methyl]-1-methyl-4-N-[3-(trifluoromethyl)phenyl]pyrazolo[3,4-d]pyrimidine-4,6-diamine] | – | – | 509 | 2210 |
| Cn1ncc2c(Nc3cccc(C(F)F)c3)nc(NCC3(N)CC3)nc21 [Compound 2.07, 6-N-[(1-aminocyclopropyl)methyl]-4-N-[3-(difluoromethyl)phenyl]-1-methylpyrazolo[3,4-d]pyrimidine-4,6-diamine] | – | – | 443 | 4100 |
| Cn1ncc2c(Nc3ccc(F)cc3)nc(NCC3(N)CC3)nc21 [Compound 2.08, 6-N-[(1-aminocyclopropyl)methyl]-4-N-(4-fluorophenyl)-1-methylpyrazolo[3,4-d]pyrimidine-4,6-diamine] | – | – | 242 | 2720 |
| Cc1ccc(Nc2nc(NCC3(N)CC3)nc3c2cnn3C)cc1Cl [Compound 2.09, 6-N-[(1-aminocyclopropyl)methyl]-4-N-(3-chloro-4-methylphenyl)-1-methylpyrazolo[3,4-d]pyrimidine-4,6-diamine] | – | – | 39.8 | 602 |
| Cn1ncc2c(Nc3cccnc3)nc(NCC3(N)CC3)nc21 [Compound 2.10, 6-N-[(1-aminocyclopropyl)methyl]-1-methyl-4-N-pyridin-3-ylpyrazolo[3,4-d]pyrimidine-4,6-diamine] | – | – | 8680 | 15700 |
| Cn1ncc2c(Nc3ccccc3)nc(NCC3(N)CC3)nc21 [Compound 2.11, 6-N-[(1-aminocyclopropyl)methyl]-1-methyl-4-N-phenylpyrazolo[3,4-d]pyrimidine-4,6-diamine] | – | – | 490 | 2890 |
| Cn1ncc2c(NCc3cccc(Br)c3)nc(NCC3(N)CC3)nc21 [Compound 2.12, 6-N-[(1-aminocyclopropyl)methyl]-4-N-[(3-bromophenyl)methyl]-1-methylpyrazolo[3,4-d]pyrimidine-4,6-diamine] | – | – | 588 | 1490 |
| Cn1ncc2c(NCc3ccc(Br)cc3)nc(NCC3(N)CC3)nc21 [Compound 2.13, 6-N-[(1-aminocyclopropyl)methyl]-4-N-[(4-bromophenyl)methyl]-1-methylpyrazolo[3,4-d]pyrimidine-4,6-diamine] | – | – | 369 | 1610 |
| Cn1ncc2c(Nc3ccc(F)cc3Cl)nc(NCC3(N)CC3)nc21 [Compound 2.14, 6-N-[(1-aminocyclopropyl)methyl]-4-N-(2-chloro-4-fluorophenyl)-1-methylpyrazolo[3,4-d]pyrimidine-4,6-diamine] | – | – | 5960 | 9590 |
| Cn1ncc2c(Nc3ccc(Cl)cc3F)nc(NCC3(N)CC3)nc21 [Compound 2.15, 6-N-[(1-aminocyclopropyl)methyl]-4-N-(4-chloro-2-fluorophenyl)-1-methylpyrazolo[3,4-d]pyrimidine-4,6-diamine] | – | – | 446 | 1630 |
| Cn1ncc2c(Nc3cc(F)cc(Cl)c3)nc(NCC3(N)CC3)nc21 [Compound 2.16, 6-N-[(1-aminocyclopropyl)methyl]-4-N-(3-chloro-5-fluorophenyl)-1-methylpyrazolo[3,4-d]pyrimidine-4,6-diamine] | – | – | 452 | 959 |
| Cn1ncc2c(Nc3ccc(Cl)c(C#N)c3)nc(NCC3(N)CC3)nc21 [Compound 2.17, 5-[[6-[(1-aminocyclopropyl)methylamino]-1-methyl-pyrazolo[3,4-d]pyrimidin-4-yl]amino]-2-chloro-benzonitrile] | – | – | 440 | 2560 |
| Cn1ncc2c(NC34CC(c5ccccc5)(C3)C4)nc(NCC3(N)CC3)nc21 [Compound 2.18, N6-[(1-aminocyclopropyl)methyl]-1-methyl-N4-(1-phenyl-3-bicyclo[1.1.1]pentanyl)pyrazolo[3,4-d]pyrimidine-4,6-diamine] | – | – | 111 | 207 |
| Cn1ncc2c(NCc3ccc(C(F)(F)F)nc3)nc(NCC3(N)CC3)nc21 [Compound 2.19, 6-N-[(1-aminocyclopropyl)methyl]-1-methyl-4-N-[[6-(trifluoromethyl)pyridin-3-yl]methyl]pyrazolo[3,4-d]pyrimidine-4,6-diamine] | – | – | 7120 | 11700 |
